From patent publication US11771084B2, “Preservation of personal care compositions” (SHARON LABORATORIES LTD., priority 2018, dated 2023) come the findings set out here.

One data set relates to S. aureus ATCC 6538. Briefly: MIC evaluation test. The class given is cell-based, Staphylococcus aureus. The protocol: (§1) The culture is standardized using standard microbiological techniques to have a concentration of very near 1 million cells per milliliter.
(§2) The antimicrobial agent is diluted a number of times, with Tryptic soy broth or sabouraud broth for fungi. After the antimicrobial agent had been diluted, a volume of the standardized inoculums was added to each dilution vessel, bringing the microbial concentration to approximately 1,000,000 cells per milliliter. The inoculated, serially diluted antimicrobial agent was incubated at an appropriate temperature for the test organism, 24 hours for bacteria 48 for yeast and 72 for mold.
(§3) MIC results are expressed in ppm.
(§4) The microorganism strains used for the test were E. coli ATCC 8739, P. aeruginosa ATCC 9027, S. aureus ATCC 6538, C. albicans ATCC 10231, A. niger ATCC 16404.

A further data set relates to A. niger ATCC 16404. Put plainly: MIC evaluation test. The class given is cell-based, Aspergillus brasiliensis (niger). The protocol: In another exemplary procedure, MIC evaluation test with A. niger was performed in test tubes. Growth in this case is visually evaluated. A pure culture of a single microorganism was grown in Tryptic soy broth, or sabouraud broth for yeast and mold.
as §1, §2, §3, §4

A further data set has as its system P. aeruginosa ATCC 9027. Briefly: MIC evaluation test. The class given is cell-based, Pseudomonas aeruginosa. The protocol:
as §1, §2, §3, §4

A further data set concerns C. albicans ATCC 10231. Briefly: MIC evaluation test. The class given is cell-based, Candida albicans. The protocol:
In additional exemplary procedure, minimum inhibitory concentration (MIC) evaluation test with Candida albicans was performed in test tubes. Growth in this case is visually evaluated. A pure culture of a single microorganism was grown in Tryptic soy broth, or sabouraud broth for yeast and mold.
as §1, §2, §3, §4

Another data set concerns E. coli ATCC 8739. Put plainly: MIC evaluation test. The class given is cell-based, Escherichia coli. The protocol:
as §1, §2, §3, §4

Data set [1] is described as follows: Maltol shielding: absorbance at 410 nm, chelators, stainless steel 316. It is filed as physicochemical. The conditions noted are these: 0.5% solution of 90% Maltol and 10% Polyquaternium-80 in demineralized water, stainless steel 316 chip 12 hr. An excerpt: Maltol has a metal chelating property. It can bond with metal ions and form a chelate product that can be strongly colored. This reaction is highly likely to happen when maltol is used in a manufacturing process involving steel based equipment. It means that even small quantities of these chelates could induce an undesirable color in a finished cosmetic product. A way to inhibit this phenomenon would be to add to maltol a small quantity of a stronger chelating agent, in order to intercept possible metal ions before Maltol could do so. Thus, an examination of various chelating agents in order to “protect” the Maltol from chelating metal ions was done. Procedure: […]

For data set [2] the following is noted: formulation on stainless steel 304. The protocol: Procedure: To a 0.5% solution of 90% Maltol and 10% Polyquaternium-80 in demineralized water a chelating agent was added in concentrations of 25 ppm, 50 ppm, 100 ppm, 150 ppm, 200 ppm and 250 ppm, then a chip of stainless steel 316 (˜1×1 cm) was added to the solution for 12 hr.
The absorbance at 410 nm was measured with spectrophotometer Genesys 10uv (Thermo Scientific), the blank was a solution of 0.5% 90% Maltol and 10% Polyquaternium-80 in demineralized water.

Setting [3] is: Staphylococcus aureus, ATCC6538.
Where [4] appears, read: Pseudomonas aeruginosa, ATCC9027.

Converted amounts (≈) assume the structure as drawn. Like-named read-outs stand apart in the source and are kept apart here.

As for `CCCCCCCCCCCC[N+](C)(C)C.[Cl-]` [Dodecyltrimethylammonium chloride], the MIC in the data set with S. aureus ATCC 6538 (setting [3]) is less than 60 µg/mL; in the data set with A. niger ATCC 16404 (Aspergillus niger, ATCC16404), 360 µg/mL; with P. aeruginosa ATCC 9027 (setting [4]), 360 µg/mL; in the data set with C. albicans ATCC 10231 (Candida albicans, ATCC10231) it was less than 60 µg/mL; with E. coli ATCC 8739 (Escherichia coli, ATCC8739), less than 60 µg/mL.
On to `O=C([O-])[C@H](O)[C@@H](O)[C@H](O)[C@H](O)CO.[Na+]` [Sodium gluconate], for which the “absorbance at 410 nm” value in data set [1] (chelator Concentration (%) 0.5) is 0.022; in data set [1] (chelator Concentration (%) 1), 0.04; in data set [1] (chelator Concentration (%) 2) it was 0.042; in data set [1] (chelator Concentration (%) 3), 0.045; in data set [1] (chelator Concentration (%) 4) it was 0.005; in data set [1] (chelator Concentration (%) 5), 0.006.
Take `O=C([O-])CN(CCN(CC(=O)O)CC(=O)O)CC(=O)[O-].[Na+].[Na+]` [Disodium EDTA, Ethylenediaminetetraacetic acid disodium salt]: the “absorbance at 410 nm” value turned out to be 0.061 in data set [2] (chelator Concentration (%) 0.5); 0.010 in data set [2] (chelator Concentration (%) 1); 0.026 in data set [2] (chelator Concentration (%) 2); 0.007 in data set [2] (chelator Concentration (%) 3); 0 in data set [2] (chelator Concentration (%) 4); 0 in data set [2] (chelator Concentration (%) 5). Also, the “absorbance at 410 nm” value in data set [1] (chelator Concentration (%) 0.5) came to 0.022; in data set [1] (chelator Concentration (%) 1) it was 0.009; in data set [1] (chelator Concentration (%) 2), 0.004; in data set [1] (chelator Concentration (%) 3), 0.002; in data set [1] (chelator Concentration (%) 4), 0; in data set [1] (chelator Concentration (%) 5), 0.
`O=C1O[C@H]([C@@H](O)CO)C(O)=C1O` [Ascorbic acid]: the “absorbance at 410 nm” value is listed as 0.182 in data set [1] (chelator Concentration (%) 0.5); 0.162 in data set [1] (chelator Concentration (%) 1); 0.145 in data set [1] (chelator Concentration (%) 2); 0.155 in data set [1] (chelator Concentration (%) 3); 0.101 in data set [1] (chelator Concentration (%) 4); 0.06 in data set [1] (chelator Concentration (%) 5).
`CSCC[C@H](N)C(=O)O` [L-Methionine]: the “absorbance at 410 nm” value is 0.113 in data set [1] (chelator Concentration (%) 0.5); 0.391 in data set [1] (chelator Concentration (%) 1); 0.393 in data set [1] (chelator Concentration (%) 2); 0.102 in data set [1] (chelator Concentration (%) 3); 0.311 in data set [1] (chelator Concentration (%) 4); 0.096 in data set [1] (chelator Concentration (%) 5).
Turning to `COc1cc(C=O)ccc1O` [Vanillin], the “absorbance at 410 nm” value was determined as 0.037 in data set [1] (chelator Concentration (%) 0.5); 0.053 in data set [1] (chelator Concentration (%) 1); 0.062 in data set [1] (chelator Concentration (%) 2); 0.05 in data set [1] (chelator Concentration (%) 3); 0.159 in data set [1] (chelator Concentration (%) 4); 0.048 in data set [1] (chelator Concentration (%) 5).
Turning to Zinc gluconate, the “absorbance at 410 nm” value in data set [1] (chelator Concentration (%) 0.5) turned out to be 0.231; in data set [1] (chelator Concentration (%) 1), 0.136; in data set [1] (chelator Concentration (%) 2), 0.207; in data set [1] (chelator Concentration (%) 3), 0.096; in data set [1] (chelator Concentration (%) 4), 0.147; in data set [1] (chelator Concentration (%) 5) it was 0.058.
With `CCCCCCCCCCCC(=O)N[C@@H](CCCN=C(N)N)C(=O)OCC` [Ethyl Lauroyl Arginate], the MIC with S. aureus ATCC 6538 is on record as 500 ppm; with A. niger ATCC 16404 it was 20000 ppm; in the data set with P. aeruginosa ATCC 9027 it was 5000 ppm; against C. albicans ATCC 10231, 10000 ppm; with E. coli ATCC 8739, 2500 ppm.
`Cc1occc(=O)c1O` [Maltol]: the MIC in the data set with S. aureus ATCC 6538 (Staphylococcus aureus, ATCC6538, read-out: MIC) was 3800 µg/mL (≈ 30.1 mM); with A. niger ATCC 16404 (Aspergillus niger, ATCC16404, read-out: MIC), 3150 µg/mL (≈ 25 mM); with P. aeruginosa ATCC 9027 (Pseudomonas aeruginosa, ATCC9027, read-out: MIC) it was less than 1350 µg/mL; in the data set on C. albicans ATCC 10231 (Candida albicans, ATCC10231, read-out: MIC), 2250 µg/mL (≈ 17.8 mM); with E. coli ATCC 8739 (Escherichia coli, ATCC8739, read-out: MIC) it was 4000 µg/mL (≈ 31.7 mM).
Take `CCCCCCCCCCCC[N+](C)(C)Cc1ccccc1.[Cl-]` [Benzyldimethyldodecylammonium chloride]: the MIC against S. aureus ATCC 6538 (setting [3]) is less than 60 µg/mL; with A. niger ATCC 16404 (Aspergillus niger, ATCC16404), less than 60 µg/mL; with P. aeruginosa ATCC 9027 (setting [4]), 120 µg/mL; in the data set with C. albicans ATCC 10231 (Candida albicans, ATCC10231), less than 60 µg/mL; against E. coli ATCC 8739 (Escherichia coli, ATCC8739), less than 60 µg/mL.
For `O=C(O)CCN(CC(=O)O)CC(=O)O` [Beta Alanine diAcetic acid], the “absorbance at 410 nm” value in data set [1] (chelator Concentration (%) 0.5) turned out to be 0.133; in data set [1] (chelator Concentration (%) 1), 0.039; in data set [1] (chelator Concentration (%) 2), 0.045; in data set [1] (chelator Concentration (%) 3) it was 0.124; in data set [1] (chelator Concentration (%) 4) it was 0.067; in data set [1] (chelator Concentration (%) 5), 0.098.
Consider `CCCCCCCCCC[N+](C)(C)CCCCCCCCCC.[Cl-]` [Didecyldimethylammonium chloride], for which the MIC is less than 3 µg/mL with S. aureus ATCC 6538 (setting [3]); less than 30 µg/mL in the data set on A. niger ATCC 16404 (Aspergillus niger, ATCC16404); 15 µg/mL with P. aeruginosa ATCC 9027 (setting [4]); less than 30 µg/mL with C. albicans ATCC 10231 (Candida albicans, ATCC10231); less than 3 µg/mL in the data set with E. coli ATCC 8739 (Escherichia coli, ATCC8739).
As to `COc1cc(C(=O)[O-])ccc1O.[Na+]` [Sodium vanillate], the “absorbance at 410 nm” value in data set [1] (chelator Concentration (%) 0.5) was 0.073; in data set [1] (chelator Concentration (%) 1), 0.044; in data set [1] (chelator Concentration (%) 2), 0.386; in data set [1] (chelator Concentration (%) 3), 0.226; in data set [1] (chelator Concentration (%) 4), 0.078; in data set [1] (chelator Concentration (%) 5), 0.12.
